These results are taken from patent US20040023998A1, “Novel crystals of 1,3,4-oxadiazole derivatives, process for producing the crystals and medicines containing the same as the active ingredient” (priority 2000, published 2004).

The structures appear in SMILES notation. Converted amounts (≈) assume the structure as drawn.

The text on data set [1]:
Moreover, for removing tetrahydrofuran in this Type-1 crystals and obtaining Type-1 crystals, it is necessary to reflux them in ethanol.

Data set [2] can be described thus: Solubility of compound of the present invention in various solvents (saturated solution, HPLC). In kind it is physicochemical. As to the method: The compound of the present invention was added to various solvents so that a saturated state was achieved. Each mixture was stirred for 30 seconds by means of a laboratory mixer and then allowed to stand for 4 minutes and 30 seconds. The stirring and standing operations were repeated seven times. The mixture was centrifuged at 3000 rpm for 15 minutes and isoamyl 4-hydroxybenzoate was added as an internal standard to the resulting supernatant. Furthermore, acetonitrile was added to the supernatant to form a sample solution. A portion (8 μL) of each solution was analyzed using high performance liquid chromatography (HPLC) under the following conditions to determine its concentration by the internal standard method, and thereby solubility was calculated. Additionally, pH at the dissolution was measured.
HPLC measuring conditions
Eluent: 20 mmol/L aqueous potassium dihydrogen phosphate solution (pH 8.0, sodium hydroxide)/acetonitrile=65/35
As the buffer (buffer solution) in Table 5, Briton-Robinson Buffer having an ionic strength of 0.2 was used.

A short description of data set [3]: Toxicity.
Data set [4] is described as follows: Stability test (storage of solid, residual ratio by HPLC). The note with it: all storage conditions of Table 6. In kind it is physicochemical. The method, then: The compound of the present invention (about 50 mg) was weighed in a test tube and stored under the following conditions. The stored sample was analyzed using high performance liquid chromatography (HPLC) to calculate its residual ratio by the internal standard method.
Condition 1: 60° C., sealed, 1 month;
Condition 2: 40° C., open, 75%RH (relative humidity), 3 months;
Condition 3: 40° C., sealed, 6 months;
Condition 4: 25° C., open, 60%RH (relative humidity), 12 months;
Condition 5: 5° C., sealed, 12 months;
The HPLC measurement was carried out under the same conditions as in Example 2 described above.

On to `CC(C)C(NC(=O)Cn1c(-c2ccccc2)ncc(N)c1=O)C(=O)c1nnc(C(C)(C)C)o1` (racemic) [Type-1 crystals, 2-[5-Amino-6-oxo-2-phenyl-1,6-dihydro-1-pyrimidyl]-N-[1-(2-[5-t-butyl-1,3,4-oxadiazolyl]carbonyl)-2-(R,S)-methylpropyl]acetamide, reference compound], for which the “Stability of the form in water” value in data set [1] is reported as “promptly results in precipitation of Type-2 crystals”.

In the case of `CC(C)C(NC(=O)Cn1c(-c2ccccc2)ncc(N)c1=O)C(=O)c1nnc(C(C)(C)C)o1` (racemic) [compound of the present invention, 2-[5-amino-6-oxo-2-phenyl-1,6-dihydro-1-pyrimidyl]-N-[1-(2-[5-t-butyl-1,3,4-oxadiazolyl]carbonyl)-2-(R,S)-methylpropyl]acetamide], the solubility at 35 min in data set [2] (aqueous buffer, thermodynamic from solid, Buffer pH 3.0 (Briton-Robinson, ionic strength 0.2), pH at dissolution 3.0) turned out to be 122 µg/mL (≈ 270 µM); in data set [2] (aqueous buffer, thermodynamic from solid, Buffer pH 5.0 (Briton-Robinson, ionic strength 0.2), pH at dissolution 5.0), 104 µg/mL (≈ 230 µM); in data set [2] (aqueous buffer, thermodynamic from solid, Buffer pH 7.0 (Briton-Robinson, ionic strength 0.2), pH at dissolution 7.0), 94 µg/mL (≈ 208 µM); in data set [2] (aqueous buffer, thermodynamic from solid, Buffer pH 9.0 (Briton-Robinson, ionic strength 0.2), pH at dissolution 8.6), 45 µg/mL (≈ 99.4 µM); in data set [2] (organic solvent or mixture, thermodynamic from solid, solvent: Acetonitrile), 19100 µg/mL (≈ 42200 µM); in data set [2] (organic solvent or mixture, thermodynamic from solid, solvent: Ethanol) it was 7290 µg/mL (≈ 16100 µM). Further, the solubility at 35 min in data set [2] (organic solvent or mixture, thermodynamic from solid, solvent: Methanol) came to 33600 µg/mL (≈ 74300 µM); in data set [2] (organic solvent or mixture, thermodynamic from solid, solvent: Octanol), 710 µg/mL (≈ 1570 µM); in data set [2] (pH 7.3, thermodynamic from solid, solvent: Purified water, pH at dissolution 7.3), 73 µg/mL (≈ 161 µM). For the same molecule, in data set [3], the Toxicity result was “sufficiently low toxicity”. In addition, in data set [4], the “Stability (conclusion from Table 6)” value is on record as “sufficiently stable”.

The term solubility denotes the concentration that dissolves in the medium under given conditions.
